# According to patent US8536152B2, “Methods of using diacerein as an adjunctive therapy for diabetes” (TWi Biotechnology, Inc., priority 2010, dated 2013):
# Tests used:
# [1] = tested on: patients with type 2 diabetes inadequately controlled by current oral antidiabetic therapy; experiment: Same clinical study: adverse events; type: in vivo, human
# Method: (§1) Procedure: This was a randomized, double-blind, parallel comparison study comparing 50 mg diacerein versus placebo in patients with type 2 DM inadequately controlled by previous antidiabetic therapy. The starting dose of diacerein was 50 mg once daily every morning for 4 weeks and could be adjusted up to 50 mg twice daily (morning and evening) if patients had become accustomed to the medication. Patients were screened for eligibility four weeks (week-4) prior to entry at baseline (week 0). During this 4-week screening period, the participants continued their previous antidiabetic therapy, dietary habits and other lifestyle habits. In order to be eligible for randomization following the 4-week screening period, patients must not have experienced hypoglycemia and must have had two fasting plasma glucose (FPG) measurements of between 135 to 250 mg/dL. At the end of the screening period, patients who met eligibility requirements were randomly assigned to receive diacerein 50 mg or placebo twice a day for 24 weeks observation. During treatment/observation period, the previous antidiabetic therapy including the class and/or dosage was not changed. Patients were asked to attend the center on eight occasions (screening, baseline, week 4, 8, 12, 16, 20 and 24) during the trial. The total study duration including the screening period for each patient was 28 weeks. There was a two weeks follow-up period after completion of the treatment/observation. During this follow-up period, patients were followed for adverse events.
# Adverse events were summarized according to the Medical Dictionary for Regulatory Activities (MedDRA) adverse event dictionary. The tabulations counted the number of patients reporting individual preferred term adverse events and the total number of patients reporting at least one adverse event per system organ class. If appropriate, the incidence of adverse events was compared for each of the two treatment groups using Fisher's Exact test.
# [2] = tested on: patients with type 2 diabetes inadequately controlled by current oral antidiabetic therapy; experiment: Same clinical study: cardiovascular safety endpoints (body weight, blood pressure, pulse rate, lipid profiles); type: in vivo, human; design: Total Cholesterol, Change / Triglyceride, Change / HDL, Change / LDL, Change: unit not given here
# From the text: (§2) Subjects: Male or female type 2 DM patients (BMI≦35 kg/m^2) on a stable oral hypoglycemic […] for at least 3 months prior to screening visit. The hemoglobin A1c (HbA1c) measurements taken at a screening visit were between 7% and 12%. Patients enrolled in the study were receiving one or more oral antihyperglycemic agents including sulfonylurea, biguanides, alpha-glucosidase inhibitors, thiazolidinediones (TZDs) and nonsulfonylurea insulin secretagogues.
# as §1
# For the efficacy parameters, descriptive statistics were presented by visit. Statistical analysis was performed to assess the mean change from baseline. The area under the concentration-time curve (AUC) was used for evaluating the parameters measured by oral glucose tolerance test.
# [3] = tested on: patients with type 2 diabetes inadequately controlled by current oral antidiabetic therapy; experiment: Same clinical study: homeostatic model assessment (HOMA) beta cell function; type: in vivo, human
# From the text: as §2
# as §1, with “There was a two weeks follow-up period after completion of the treatment/observation. During this follow-up period, patients were followed for adverse events.” left out
# (§3) For the efficacy parameters, descriptive statistics were presented by visit. […] The area under the concentration-time curve (AUC) was used for evaluating the parameters measured by oral glucose tolerance test.
# [4] = tested on: patients with type 2 diabetes inadequately controlled by current oral antidiabetic therapy; experiment: Randomized, double-blind, placebo-controlled study of add-on diacerein: glycosylated hemoglobin (HbA1c); type: in vivo, human
# From the text: Primary Endpoints: To compare the efficacy of add-on diacerein with no add-on treatment (placebo) on glycosylated hemoglobin (HbA1c) after 24-week double-blind treatment in type 2 DM patients inadequately controlled by previous antidiabetic therapy.
# as §2
# as §1, with “During this follow-up period, patients were followed for adverse events.” left out
# Statistical method(s) for efficacy/safety evaluations: The difference (diacerein minus placebo) of HbA1c reduction between the two treatment groups was analyzed by analysis of covariance (ANCOVA) with baseline value as covariate. The corresponding 95% confidence interval was calculated. Within-group changes were also analyzed, with paired t test used to evaluate differences from baseline in each treatment group.
# For the efficacy parameters, descriptive statistics were presented by visit. […] The area under the concentration-time curve (AUC) was used for evaluating the parameters measured by oral glucose tolerance test. […]
# [5] = tested on: patients with type 2 diabetes inadequately controlled by current oral antidiabetic therapy; experiment: Same clinical study: fasting plasma glucose; type: in vivo, human; conditions: at 24 weeks
# From the text: as §2
# Procedure: This was a randomized, double-blind, parallel comparison study comparing 50 mg diacerein versus placebo in patients with type 2 DM inadequately controlled by previous antidiabetic therapy. The starting dose of diacerein was 50 mg once daily every morning for 4 weeks and could be adjusted up to 50 mg twice daily (morning and evening) if patients had become accustomed to the medication. Patients were screened for eligibility four weeks (week-4) prior to entry at baseline (week 0). During this 4-week screening period, the participants continued their previous antidiabetic therapy, dietary habits and other lifestyle habits. […]
# as §3
# [6] = tested on: type 2 (or type II) diabetes rodent models; conditions: type 2 diabetes rodent models; cited from earlier work
# [7] = Week 24, N 28, in mg/dL (unit assumed)
# [8] = Week 24, N 28, in mmHg (unit assumed)
smiles,measurement,setting,value
"CC(=O)Oc1cccc2c1C(=O)c1c(OC(C)=O)cc(C(=O)O)cc1C2=O [diacerein, 4,5-bis(acetyloxy)-9,10-dioxo-2-anthracene carboxylic acid]",difference between the two groups in the incidence of patients complaining of adverse events,[1]; diacerein vs placebo,No statistically significant difference
same,"patients reporting at least one adverse effect (AE), number",[1]; during the study period,20 patients
same,"patients reporting at least one adverse effect (AE), percent",[1]; during the study period,54.1%
same,symptomatic hypoglycemia,[1]; even in patients with a marked improvement in HbA1c levels,not observed
same,"pulse rate, Mean ± SD","[2]; Week 24, N 28",77.18 ± 10.22
same,"HDL, Mean ± SD",[2]; [7],42.25 ± 10.40
same,"LDL, Mean ± SD",[2]; [7],91.64 ± 27.28
same,"Total Cholesterol, Mean ± SD",[2]; [7],164.61 ± 30.09
same,"Triglyceride, Mean ± SD",[2]; [7],159.18 ± 97.07
same,"Systolic blood pressure, Mean ± SD",[2]; [8],130.32 ± 16.85
same,"diastolic blood pressure, Mean ± SD",[2]; [8],78.86 ± 8.20
same,"HDL, Change",[2]; Week 24 vs baseline,−0.96 ± 10.27
same,"LDL, Change",[2]; Week 24 vs baseline,−6.09 ± 19.75
same,"Systolic blood pressure, Change",[2]; Week 24 vs baseline,−0.25 ± 14.38
same,"Total Cholesterol, Change",[2]; Week 24 vs baseline,−8.46 ± 32.20
same,"Triglyceride, Change",[2]; Week 24 vs baseline,−7.57 ± 98.79
same,"diastolic blood pressure, Change",[2]; Week 24 vs baseline,−1.14 ± 8.78
same,"pulse rate, Change",[2]; Week 24 vs baseline,1.46 ± 9.00
same,risks of heart attack and cardiovascular disorders,[2]; adding diacerein to current anti-diabetic treatment,did not increase
same,"differences between treatment groups in body weight, blood pressure, pulse rate and lipid profiles","[2]; between baseline levels and levels at week 24, diacerein vs placebo",no statistically significant differences
same,within-group change from baseline in HOMA-BETA,[3]; over 24 weeks,significant
same,HOMA beta cell function (HOMA-BETA) course over treatment,[3]; over the course of treatment,continual improvement
same,HOMA-BETA,[3]; week 24,56.26
same,between-group difference in HbA1c change (diacerein vs placebo),"[4]; 24 weeks, P=0.0158",0.63 percentage point
same,average absolute difference in HbA1c levels between baseline and 24 weeks (reduction),"[4]; add-on diacerein 50 mg twice a day, 24 weeks, within group",0.63 percentage point
same,HbA1c absolute reduction versus the placebo group,"[4]; after 20 weeks, P=0.0223",0.60%
same,number of patients who had any reduction in HbA1c levels,[4]; at 24 weeks,20 of 26
same,fasting plasma glucose levels versus placebo group,[5],consistently lower
"O=C(O)c1cc(O)c2c(c1)C(=O)c1cccc(O)c1C2=O [Rhein, 9,10-dihydro-4,5-dihydroxy-9,10-dioxo-2-anthracenecarboxylic acid]",blood glucose concentration control,[6],control the blood glucose concentration
